Molecular target: p38α MAPK (Homo sapiens, UniProt Q16539)
Assay: microscale thermophoresis
Assay type: binding

Sequence of p38α MAPK (Q16539 2-360): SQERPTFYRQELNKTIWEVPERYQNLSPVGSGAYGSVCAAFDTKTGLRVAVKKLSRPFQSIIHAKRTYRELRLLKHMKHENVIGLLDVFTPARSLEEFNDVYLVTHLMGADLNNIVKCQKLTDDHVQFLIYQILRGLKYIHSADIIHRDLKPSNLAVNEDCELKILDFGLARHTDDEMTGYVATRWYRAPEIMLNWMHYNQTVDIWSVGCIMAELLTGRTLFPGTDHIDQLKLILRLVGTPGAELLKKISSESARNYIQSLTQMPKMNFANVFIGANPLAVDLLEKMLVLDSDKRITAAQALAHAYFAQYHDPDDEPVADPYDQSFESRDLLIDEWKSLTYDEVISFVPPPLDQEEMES

Kd: 31 nM
SMILES: COC(=O)[C@@]12OC[C@]34[C@H]([C@@H](O)[C@@H]1O)[C@@]1(C)CC(=O)C(O)=C(C)[C@@H]1C[C@H]3OC(=O)[C@H](OC(=O)CC(C)C)[C@@H]24 [bruceine A]
